Laboratory results published in patent US11352400B2, “PI3K gamma inhibitor peptide for treatment of respiratory system diseases” (Kither Biotech S.r.I., priority 2014, dated 2022).

Assays:
[1] = system: lung inflammation in mice sensitized with ovalbumin; assay: Analysis of airway inflammation in asthmatic mice; assay type: in vivo, BALB/C mice; details: OVA-sensitized mice, vs P1
Procedure: (§1) Ovalbumin (100 μg) (OVA, Sigma-Aldrich, St. Louis, Mo.), complexed with aluminum potassium sulfate (1 mg, alum) was administered intraperitoneally (i.p.) on days 1 and 14, and intra-nasally (i.n.) (50 μg OVA in 50 μl PBS) on days 14, 25, 26, and 27. Control mice received i.p. injections of alum and i.n. injections of PBS only. Airway hyperreactivity induced by inhaled methacholine was measured at 24 hours after the final dose of OVA (Day 28).
Wild-type BALB/C mice were treated, by intra-tracheal instillation, with 25 μg of the Trojan peptide derived from PI3Kγ or equimolar amounts of P1 control peptide, in a final volume of 70 μL of phosphate-buffered saline (PBS), before each intranasal administration of ovalbumin (days 14, 25, 26, and 27 of the protocol of immunization with ovalbumin). At 24 hours after the final injection (day 28), mice were anesthetized (sodium pentobarbital, 70-90 mg/kg, i.p.) and the tracheas incised and cannulated. The airways were washed with 2.5 ml of phosphate-buffered saline solution (PBS). The total number of cells in the bronchoalveolar lavage (BAL) was determined with a Neubauer hemocytometer. A volume of 50 μL of BAL was centrifuged onto cytospin glass slides at 400 rpm at room temperature for 5 minutes and stained with a Diff-Quick system (LabAids, Ronkonkoma, USA). A total of 100 cells per slide were counted and classified as neutrophils, macrophages, lymphocytes and eosinophils on the basis of morphological criteria. Erythrocytes and epithelial cells were ignored and the results were expressed as cells/ml.
To assess the peribronchial inflammation, the lungs of a group of animals that had not been subjected to bronchoalveolar lavage were explanted, fixed in a solution of 4% paraformaldehyde (PFA) for 24 hours at 4° C. and embedded in paraffin. Slices that were 5 μm-thick, deparaffinized, stained with a hematoxylin-eosin solution (Bio-Optica, Milano, Italy), dehydrated and mounted with glass coverslips. The extent of peribronchial inflammation was classified as follows: 0—normal; 1—few inflammatory cells; 3—a thick ring of inflammatory cells.
To evaluate the presence of goblet cells, lung slices were stained with periodic acid-Schiff's reagent (PAS) (Bio-Optica, Milano, Italy) and the percentage of PAS-positive cells was calculated by counting the number of PAS-positive epithelial cells and total epithelial cells.

β2-AR/cAMP signaling = assay: FRET imaging of cAMP (ICUE3 probe) in hBSMCs after β2-AR stimulation; assay type: cell-based, human; details: hBSMCs pre-treated 50 μM, 30 minutes; ISO 100 nM + CGP-20712A 100 nM
Procedure: Human bronchial smooth muscle cells (hBSMCs) were transfected with a plasmid encoding the FRET probe for cAMP, ICUE3 (described in the U.S. Pat. No. 8,236,523 B2) (2), by electroporation with a Nucleofector device (AMAXA, Gaithersburg, Md.), according to the manufacturer's protocol. Briefly, 1×10^6 cells were re-suspended in 100 μL of nucleofection solution (VPI-1004, AMAXA, Gaithersburg, Md.), mixed with 1 μg of pcDNA3-ICUE3 (described in U.S. Pat. No. 8,236,523 B2), and subjected to electroporation in a nucleofection apparatus of Amaxa Biosystems (Program A-033). Live cell imaging experiments were performed at 24 hours after transfection.
Measurements of cAMP levels were performed on human bronchial smooth muscle cells (hBSMCs) that express the FRET probe ICUE3, as described previously (2). Briefly, cells were maintained in a K^+-Ringer solution containing (in mmol/L) 121.6 NaCl, 5.4 KCl, 1.8 MgCl2, 1.8 CaCl2, 4 NaHCO3, 0.8 NaH2PO4, 5 D-glucose, 5 sodium pyruvate, 10 HEPES, at pH 7.4. […] FRET efficiency was calculated using the “Method 3” provided by the Leica wizard application for FRET imaging and sensitized emission, according to which: EA(i)=B/A, where EA(i) is the apparent FRET efficiency; A and B are the intensities of the CFP channel and FRET, respectively. […]

[2] = system: ovalbumin (OVA)-induced asthma mice; assay: Airway hyperresponsiveness (tidal volume) in ovalbumin-induced asthma model; assay type: in vivo, BALB/C mice; details: OVA-sensitized mice; 150 μg intra-tracheal, 30 minutes before methacholine; vs PBS or P1
Procedure: as §1
Method 2: Mice sensitized to ovalbumin were treated, by intra-tracheal instillation, with 70 μL of phosphate-buffered saline solution (PBS) containing vehicle or 150 μg of the Trojan peptide derived from PI3Kγ or equimolar amounts of P1 control peptide. Airway hyperresponsiveness was assessed at 30 minutes after the treatment according to a previously published protocol (6). […] The airway opening pressure (Pao), proximal to the endotracheal tube, and the pressure inside the chamber were measured with pressure transducers (Special Instruments, Digima Clic; Nordlingen, Germany). Gas flow was measured with a pneumotachograph (Special Instruments, Digima Clic; Nordlingen, Germany). Tidal volume was calculated as the integral of the flow signal. Variables of mechanical ventilation were recorded using the ICU-Lab software (KleisTEK Advanced Electronic Systems, Bari, Italy). […]

[3] = 25 μg/mouse intra-tracheal before each intranasal OVA

Sequence: RQIKIWFQNRRMKWKKGKATHRSPGQIHLVQRHPPSEESQAF (fusion peptide comprising SEQ ID No.1 and SEQ ID No.3) [Trojan peptide derived from PI3Kγ]
- number of goblet cells (PAS-positive) [1, 3]: significantly reduced
- number of neutrophils in the bronchoalveolar lavage [1, 3]: significantly lower
- peribronchial inflammatory infiltrate [1, 3]: significantly reduced
- eosinophils in the bronchoalveolar lavage ([1]; 25 μg/mouse): unchanged
- lymphocytes in the bronchoalveolar lavage ([1]; 25 μg/mouse): unchanged
- macrophages in the bronchoalveolar lavage ([1]; 25 μg/mouse): unchanged
- increase of cAMP accumulation following stimulation of β2-ARs (β2-AR/cAMP signaling): 35%
- reduction of the tidal volume induced by methacholine [2]: significantly attenuated
